{"source": "patent US9682965B2", "about": "“Fumagillol heterocyclic compounds and methods of making and using same” (Zafgen, Inc., priority 2015, dated 2017)", "key": {"[1]": {"test_system": "Diet Induced Obese (DIO) C57BL/6 mice", "experiment": "10 day DIO mouse model (body weight, food intake, hematology, blood chemistry)", "assay_type": "in vivo", "settings": "240 h, DIO mouse, once a day for 10 days, read-out: DIO Mouse 10-day weight loss vs vehicle; for inhibition in vivo at 0.3 mg/kg: 0.3 mpk sc", "procedure,_shortened": "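DIO C57BL/6 mice on 60% kcal fat diet received compounds subcutaneously once daily for 10 days at 1.0, 0.5, 0.3, 0.1 or 0.03 mpk, in 10% DMSO in water, after 3-day vehicle acclimation. Body weight and food intake were recorded daily. Hematology and blood chemistry were taken on Day 11, 24 h post-final dose.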"}, "recombinant human MetAP2": {"molecular_target": "recombinant human MetAP2 (Homo sapiens (Human), UniProt P50579)", "sequence (P50579 whole entry)": "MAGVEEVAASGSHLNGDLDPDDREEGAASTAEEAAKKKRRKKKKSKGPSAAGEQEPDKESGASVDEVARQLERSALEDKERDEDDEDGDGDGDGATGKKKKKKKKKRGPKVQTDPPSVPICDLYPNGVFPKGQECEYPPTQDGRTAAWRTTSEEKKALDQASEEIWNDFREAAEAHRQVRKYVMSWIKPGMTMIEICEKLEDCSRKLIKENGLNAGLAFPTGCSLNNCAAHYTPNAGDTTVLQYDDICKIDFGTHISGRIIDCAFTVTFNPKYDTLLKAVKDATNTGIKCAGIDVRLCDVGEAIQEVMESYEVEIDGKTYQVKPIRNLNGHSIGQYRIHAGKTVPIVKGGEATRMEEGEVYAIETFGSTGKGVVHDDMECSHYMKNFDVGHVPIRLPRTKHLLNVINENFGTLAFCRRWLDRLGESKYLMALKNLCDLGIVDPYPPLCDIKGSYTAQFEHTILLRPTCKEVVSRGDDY", "experiment": "recombinant human MetAP2 enzyme inhibition assay", "assay_type": "biochemical", "settings": "recombinant human MetAP2, MAS peptide substrate, 25 minutes at 25° C", "description": "Compounds are tested for their capacity to inhibit recombinant human MetAP2 activity using the following assay.\nFlag tagged Human recombinant MetAP2 expressed and isolated for use as the enzyme source. 10 mM stock solutions of compounds were prepared in 100% DMSO and further diluted in 100% DMSO required concentration to 1 mM stocks. The stock compound solutions and DMSO vehicle controls were diluted to target final compound concentrations using assay buffer to a final concentration of 50 mM HEPES containing 100 mM NaCl, pH adjusted to 7.5. The MAS peptide was formulated to a 7.5 mM stock in distilled water and prior to use further diluted 1:4. […] 40 μl of enzyme was mixed with 100 μl of MnCl2 then further diluted in assay buffer to a final concentration of 16 μg/ml. To test for compound effect on MetAP2 enzyme activity, 5 μl of test compound, 10 μl of MAS substrate/amino acid oxidase mixture, 10 μl of MetAP2 was added to test wells in a 384 well black plate with blank wells containing no enzyme, replaced with 10 μl of assay buffer. All compounds were tested in duplicate on two occasions on the same day.\nThe plate was sealed with a TopSeal A cover and mixed briefly on an orbital mixer at 900 rpm. The plate was incubated for a further 25 minutes at 25° C. A 5× stock of Amplex buffer was prepared (0.25M sodium phosphate, pH 7.4) and stored at 4° C. […] 25 μl detection reagent was added to each well of the test plate, which was re-sealed and mixed briefly on an orbital shaker."}, "[2]": {"test_system": "Male Sprague Dawley rats on high fat diet", "experiment": "11 day rat DIO model (body weight, food intake, hematology, blood chemistries)", "assay_type": "in vivo", "settings": "264 h, DIO rat, once a day for 11 days, read-out: DIO Rat 11-day weight loss vs vehicle; for inhibition in vivo at 0.3 mg/kg: 0.3 mpk sc; for inhibition in vivo at 1 mg/kg: 1.0 mpk sc", "excerpt": "The objective of this study design is to investigate the efficacy of disclosed compounds in an 11 day rat DIO model used to screen compounds for pharmacologic efficacy on endpoints related to obesity and metabolism. Effects on body weight, food intake, hematology and blood chemistries were the primary readouts of this study design. […] Rats were fed Research Diets D12451 (45% High Fat) and provided water ad libitum. Rats were received and housed in the facility for at least two or three weeks prior to start of test article administration. On Day −4 or −3, rats were randomized into study groups based on body weight and body weights were continued to be recorded daily for the duration of the study. Daily food intake was assessed starting on Study Day −2 by weighing the hopper including the food to avoid loss of food in transfer.\nCompounds were formulated into a 100% DMSO stock (at 9 mg/mL) prior to the start, and further diluted into the target working concentration using the vehicle of 10% DMSO in water. Prior to test article administration, starting on Day −3 a dosing acclimation occured with all animals receiving a subcutaneous injection of vehicle (10% DMSO) only for 3 days. Starting on Day 1, test compounds or vehicle were administered based on individual body weight, subcutaneously, once a day for 11 days. All animals were sacrificed on Day 11, approximately 2 hours following the final dosing on Day 11. After sacrifice, whole blood was collected and analyzed for hematology and blood chemistry parameters.\nCompounds were tested vs. vehicle at various doses (1.0, 0.5, 0.3, 0.1, 0.03 mpk sc (mg per kg animal weight delivered subcutaneously), and the results are shown in Table 2 below."}}, "note": "Where a name gives a salt, the structure may show the parent alone. Read-outs that look alike come from different tables or passages of the source."}
{"compound": "CCNC[C@@H]1CCN1C(=O)O[C@@H]1CC[C@]2(CO2)[C@@H]([C@@]2(C)O[C@@H]2CC=C(C)C)[C@@H]1OC", "note": "[Example 122, (S)-((3R,4S,5S,6R)-5-methoxy-4-((2R,3R)-2-methyl-3-(3-methylbut-2-enyl)oxiran-2-yl)-1-oxaspiro[2.5]octan-6-yl) 2-((ethylamino)methyl)azetidine-1-carboxylate]", "values": [{"measurement": "inhibition in vivo at 0.3 mg/kg", "setting": "[1]", "result": 3.2, "unit": "%"}, {"measurement": "IC50", "setting": "recombinant human MetAP2", "result": "< 50", "unit": "nM"}]}
{"compound": "CCN(CC)CCC1CCN(C(=O)O[C@@H]2CC[C@]3(CO3)[C@@H]([C@@]3(C)O[C@@H]3CC=C(C)C)[C@@H]2OC)C1", "note": "(stereo in doubt) [Example 56, (S)-(3R,4S,5S,6R)-5-methoxy-4-((2R,3R)-2-methyl-3-(3-methylbut-2-en-1-yl)oxiran-2-yl)-1-oxaspiro[2.5]octan-6-yl 3-(2-(diethylamino)ethyl)pyrrolidine-1-carboxylate]", "values": [{"measurement": "inhibition in vivo at 0.3 mg/kg", "setting": "[1]", "result": 7.2, "unit": "%"}, {"measurement": "IC50", "setting": "recombinant human MetAP2", "result": "< 50", "unit": "nM"}]}
{"compound": "CO[C@@H]1[C@H](OC(=O)N2CC(CCN3CCC(O)CC3)C2)CC[C@]2(CO2)[C@H]1[C@@]1(C)O[C@@H]1CC=C(C)C", "note": "[Example 7, (3R,4S,5S,6R)-5-methoxy-4-((2R,3R)-2-methyl-3-(3-methylbut-2-en-1-yl)oxiran-2-yl)-1-oxaspiro[2.5]octan-6-yl 3-(2-(4-hydroxypiperidin-1-yl)ethyl)azetidine-1-carboxylate]", "values": [{"measurement": "inhibition in vivo at 0.3 mg/kg", "setting": "[1]; Mus musculus, sc", "result": 1.8, "unit": "%"}, {"measurement": "IC50", "setting": "recombinant human MetAP2", "result": "< 50", "unit": "nM"}]}
{"compound": "CCN(CC)CCCC1(O)CN(C(=O)O[C@@H]2CC[C@]3(CO3)[C@@H]([C@@]3(C)O[C@@H]3CC=C(C)C)[C@@H]2OC)C1", "note": "[Example 61, (3R,4S,5S,6R)-5-methoxy-4-((2R,3R)-2-methyl-3-(3-methylbut-2-enyl)oxiran-2-yl)-1-oxaspiro[2.5]octan-6-yl 3-(3-(diethylamino)propyl)-3-hydroxyazetidine-1-carboxylate]", "values": [{"measurement": "IC50", "setting": "recombinant human MetAP2", "result": "< 50", "unit": "nM"}]}
{"compound": "CNC(=O)CC1CN(C(=O)O[C@@H]2CC[C@]3(CO3)[C@@H]([C@@]3(C)O[C@@H]3CC=C(C)C)[C@@H]2OC)C1", "note": "[Example 63, (3R,4S,5S,6R)-5-methoxy-4-((2R,3R)-2-methyl-3-(3-methylbut-2-enyl)oxiran-2-yl)-1-oxaspiro[2.5]octan-6-yl 3-(2-(methylamino)-2-oxoethyl)azetidine-1-carboxylate]", "values": [{"measurement": "inhibition in vivo at 0.3 mg/kg", "setting": "[1]", "result": 0.5, "unit": "%"}, {"measurement": "IC50", "setting": "recombinant human MetAP2", "result": "< 50", "unit": "nM"}]}
{"compound": "CO[C@@H]1[C@H](OC(=O)N2CCC(CCN3CC(F)(F)C3)C2)CC[C@]2(CO2)[C@H]1[C@@]1(C)O[C@@H]1CC=C(C)C", "note": "(stereo in doubt) [Example 57, (R)-(3R,4S,5S,6R)-5-methoxy-4-((2R,3R)-2-methyl-3-(3-methylbut-2-en-1-yl)oxiran-2-yl)-1-oxaspiro[2.5]octan-6-yl 3-(2-(3,3-difluoroazetidin-1-yl)ethyl)pyrrolidine-1-carboxylate]", "values": [{"measurement": "inhibition in vivo at 0.3 mg/kg", "setting": "[1]", "result": 17.4, "unit": "%"}, {"measurement": "inhibition in vivo at 0.3 mg/kg", "setting": "[2]", "result": 5.3, "unit": "%"}]}
{"compound": "CO[C@@H]1[C@H](OC(=O)N2CC(CCN3CC(F)(F)C3)C2)CC[C@]2(CO2)[C@H]1[C@@]1(C)O[C@@H]1CCC(C)C", "note": "[Example 126, (3R,4S,5S,6R)-4-((2R,3R)-3-isopentyl-2-methyloxiran-2-yl)-5-methoxy-1-oxaspiro[2.5]octan-6-yl3-(2-(3,3-difluoroazetidin-1-yl)ethyl)azetidine-1-carboxylate]", "values": [{"measurement": "inhibition in vivo at 0.3 mg/kg", "setting": "[1]", "result": 13.2, "unit": "%"}, {"measurement": "inhibition in vivo at 0.3 mg/kg", "setting": "[2]", "result": 7.4, "unit": "%"}, {"measurement": "inhibition in vivo at 1 mg/kg", "setting": "[2]", "result": 9.1, "unit": "%"}]}
{"compound": "CO[C@@H]1[C@H](OC(=O)N2CC(Nc3ccccn3)C2)CC[C@]2(CO2)[C@H]1[C@@]1(C)O[C@@H]1CC=C(C)C", "note": "[Example 98, (3R,4S,5S,6R)-5-methoxy-4-((2R,3R)-2-methyl-3-(3-methylbut-2-enyl)oxiran-2-yl)-1-oxaspiro[2.5]octan-6-yl 3-(pyridin-2-ylamino)azetidine-1-carboxylate]", "values": [{"measurement": "inhibition in vivo at 0.3 mg/kg", "setting": "[1]", "result": 12.6, "unit": "%"}, {"measurement": "inhibition in vivo at 0.3 mg/kg", "setting": "[2]", "result": 1.2, "unit": "%"}]}
{"compound": "CO[C@@H]1[C@H](OC(=O)N2CC(CCN3CCC(F)(F)C3)C2)CC[C@]2(CO2)[C@H]1[C@@]1(C)O[C@@H]1CC=C(C)C", "note": "[Example 45, (3R,4S,5S,6R)-5-methoxy-4-((2R,3R)-2-methyl-3-(3-methylbut-2-enyl)oxiran-2-yl)-1-oxaspiro[2.5]octan-6-yl 3-(2-(3,3-difluoropyrrolidin-1-yl)ethyl)azetidine-1-carboxylate]", "values": [{"measurement": "inhibition in vivo at 0.3 mg/kg", "setting": "[1]", "result": 16.8, "unit": "%"}, {"measurement": "inhibition in vivo at 0.3 mg/kg", "setting": "[2]", "result": 5.2, "unit": "%"}]}
{"compound": "CCN(CC)C[C@H]1CCCN1C(=O)O[C@@H]1CC[C@]2(CO2)[C@@H]([C@@]2(C)O[C@@H]2CC=C(C)C)[C@@H]1OC", "note": "[Example 60, (R)-((3R,4S,5S,6R)-5-methoxy-4-((2R,3R)-2-methyl-3-(3-methylbut-2-enyl)oxiran-2-yl)-1-oxaspiro[2.5]octan-6-yl) 2-((diethylamino)methyl)pyrrolidine-1-carboxylate formate]", "values": [{"measurement": "inhibition in vivo at 0.3 mg/kg", "setting": "[1]", "result": 6.3, "unit": "%"}, {"measurement": "inhibition in vivo at 0.3 mg/kg", "setting": "[2]", "result": 1.95, "unit": "%"}, {"measurement": "inhibition in vivo at 1 mg/kg", "setting": "[2]", "result": 7.79, "unit": "%"}]}
{"compound": "CCN(CC)CCC1CCN1C(=O)O[C@@H]1CC[C@]2(CO2)[C@@H]([C@@]2(C)O[C@@H]2CC=C(C)C)[C@@H]1OC", "note": "(stereo partly drawn) [Example 106, (3R,4S,5S,6R)-5-methoxy-4-((2R,3R)-2-methyl-3-(3-methylbut-2-enyl)oxiran-2-yl)-1-oxaspiro[2.5]octan-6-yl 2-(2-(diethylamino)ethyl)azetidine-1-carboxylate]", "values": [{"measurement": "inhibition in vivo at 0.1 mg/kg", "setting": "[1]; Mus musculus, sc, 0.1 mpk sc", "result": 2, "unit": "%"}, {"measurement": "inhibition in vivo at 0.5 mg/kg", "setting": "[2]; 0.5 mpk sc", "result": 4.82, "unit": "%"}]}
{"compound": "CO[C@@H]1[C@H](OC(=O)N2CC[C@H](CCN3CCOCC3)C2)CC[C@]2(CO2)[C@H]1[C@@]1(C)O[C@@H]1CC=C(C)C", "note": "[Example 54, (S)-((3R,4S,5S,6R)-5-methoxy-4-((2R,3R)-2-methyl-3-(3-methylbut-2-enyl)oxiran-2-yl)-1-oxaspiro[2.5]octan-6-yl) 3-(2-morpholinoethyl)pyrrolidine-1-carboxylate]", "values": [{"measurement": "inhibition in vivo at 0.3 mg/kg", "setting": "[1]", "result": 16.4, "unit": "%"}, {"measurement": "inhibition in vivo at 0.3 mg/kg", "setting": "[2]", "result": 7.3, "unit": "%"}]}
{"compound": "CO[C@@H]1[C@H](OC(=O)N2CC(Cc3ccccn3)C2)CC[C@]2(CO2)[C@H]1[C@@]1(C)O[C@@H]1CC=C(C)C", "note": "[Example 100, (3R,4S,5S,6R)-5-methoxy-4-((2R,3R)-2-methyl-3-(3-methylbut-2-en-1-yl)oxiran-2-yl)-1-oxaspiro[2.5]octan-6-yl 3-(pyridin-2-ylmethyl)azetidine-1-carboxylate]", "values": [{"measurement": "inhibition in vivo at 0.3 mg/kg", "setting": "[1]", "result": 9.8, "unit": "%"}, {"measurement": "inhibition in vivo at 0.3 mg/kg", "setting": "[2]", "result": 5.5, "unit": "%"}]}
{"compound": "CO[C@@H]1[C@H](OC(=O)N2CC(CN3CCOCC3)C2)CC[C@]2(CO2)[C@H]1[C@@]1(C)O[C@@H]1CC=C(C)C", "note": "[Example 95, (3R,4S,5S,6R)-5-methoxy-4-((2R,3R)-2-methyl-3-(3-methylbut-2-enyl)oxiran-2-yl)-1-oxaspiro[2.5]octan-6-yl 3-(morpholinomethyl)azetidine-1-carboxylate]", "values": [{"measurement": "inhibition in vivo at 0.3 mg/kg", "setting": "[1]", "result": 14.7, "unit": "%"}, {"measurement": "inhibition in vivo at 0.3 mg/kg", "setting": "[2]", "result": 3, "unit": "%"}]}
{"compound": "CO[C@@H]1[C@H](OC(=O)N2CC(CCn3cccn3)C2)CC[C@]2(CO2)[C@H]1[C@@]1(C)O[C@@H]1CC=C(C)C", "note": "[Example 17, (3R,4S,5S,6R)-5-methoxy-4-((2R,3R)-2-methyl-3-(3-methylbut-2-enyl)oxiran-2-yl)-1-oxaspiro[2.5]octan-6-yl 3-(2-(1H-pyrazol-1-yl)ethyl)azetidine-1-carboxylate]", "values": [{"measurement": "inhibition in vivo at 0.3 mg/kg", "setting": "[1]", "result": 12.6, "unit": "%"}, {"measurement": "inhibition in vivo at 0.3 mg/kg", "setting": "[2]", "result": 5.1, "unit": "%"}]}
